Here are results for two compounds from patent US4110465A, “7-Amino and 7-alkanoylamino 2-oxo-3-phenylindolines” (Eli Lilly and Company, priority 1977, dated 1978).

Test [1] has as its system erythema produced by an ultra-violet light source on guinea pig skin. Description: UV-light-induced erythema blocking on guinea pig skin (anti-inflammatory activity). In kind it is in vivo, albino guinea pigs. Particulars: Cavia porcellus; oral, suspension in 1 percent aqueous sodium carboxymethylcellulose; groups of 4 guinea pigs; obtained directly or by extrapolation; read-out: ED50 for erythema blocking (dose producing 50 percent inhibition of the erythemic response). As to the method: The compounds of this invention are anti-inflammatory and anti-thrombotic agents. […] Int. Pharmacodyn, 116, 261 (1958). In this procedure, albino guinea pigs weighing 225-300 gms. are shaved on the back and chemically depilated 18 to 20 hours before initiation of the test procedures. Animals in groups of 4 are given predetermined dosages of the drug under test with one group being maintained as a control group. The drug is administered by the oral route as a suspension in 1 percent aqueous sodium carboxymethylcellulose. The control animals receive only the suspending medium. After having being given the drug or suspension medium only, each group of animals is exposed to a high-intensity ultra-violet light for a predetermined period of time, the ultra-violet light being placed in contact with the depilated skin area on the animals' back. A gummed paper reinforcement is affixed to the lamp lens to provide an unexposed area of contrast for grading the light-produced erythema.
Beginning one hour after exposure and thereafter an half-hour intervals for another 1.5 hours, a trained observer grades erythema using an arbitrary scoring system based upon the degree of contrast and redness formed. […] The following scoring system is used:
Total scores from each treatment group of four guinea pigs are compared to the control treatment, and the percent inhibition calculated as follows: [formula] […]

Test [2] relates to collagen-induced platelet aggregation. Description: collagen-induced platelet aggregation (P.A.) inhibition after oral dosing. The class given is in vivo, guinea pigs. Particulars: 2 doses at time zero and 2 hours later, blood removed 60 minutes after last dose, 0.05 ml. of 1:45 collagen dilution. How it is done: Certain of the compounds of this invention are also platelet aggregation inhibitors and the results of testing for this activity are also included in Table I. The platelet aggregation test used involves the effect of a drug upon collagen-induced platelet aggregation using the method of Hermann et al., Proc. Soc. Exp. Biol. Med. 136, 548 (1972). According to this procedure, 300-400 g. guinea pigs are used and the compound is administered by the oral route in 2 doses, at time zero and again 2 hours later, at a series of graded dose levels to groups of 4 pigs each. One group is maintained as a control group. Blood is removed by heart puncture 60 minutes after the last dose, and a platelet-rich plasma prepared therefrom. A stock collagen solution is prepared by solubilizing bovine Achilles tendon with acetic acid. The stock solution contains 0.25 percent collagen, has a pH of 2.8 and is kept under refrigeration. […] (Activity was determined by computor printout with significance at the 95 percent confidence level being attained at about the 50 percent inhibition level). In Table 1, column 1 gives the name of the compound, column 2, the ED50 for erythema blocking calculated as set forth above and column 3, the lowest active dose in the platelet aggregation test.

The ED50 is the dose at which the effect has come halfway, by size or by number of responders. As to `CC(=O)Nc1cccc2c1NC(=O)C2c1ccccc1` (stereo not shown) [N-(2-oxo-3-phenyl-7-indolinyl)-acetamide, N-(2-oxo-3-phenyl-7-indolinyl)acetamide], the ED50 in test [1] is 20 mg/kg. Moreover, in test [2], the “P.A., lowest active dose in the platelet aggregation test (active = about 50% inhibition of collagen-induced aggregation)” value was found to be 3.12 mg/kg × 2.
For `Nc1cccc2c1NC(=O)C2c1ccccc1` (stereo not shown) [2-oxo-3-phenyl-7-aminoindoline], the ED50 in test [1] is 10.2 mg/kg. For the same compound, the “P.A., lowest active dose in the platelet aggregation test (active = about 50% inhibition of collagen-induced aggregation)” value in test [2] amounted to 100 mg/kg × 2.
